We go through ten molecules from US8198273B2, “Compounds and methods for kinase modulation, and indications therefor” (Plexxikon Inc., priority 2009, dated 2012).

Data set [1] deals with CYP2C19 (Homo sapiens, UniProt P33261). As to the kind of experiment: CYP2C19 inhibition (fluorescent substrate). Type of data set: in vitro ADME. To be noted: CYP2C19, CEC substrate; read-out: Cyp IC50 2C19. In short, it runs like this:
(§1)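 Human CYP activity was followed by the fluorescence of the metabolized product of a known substrate, which falls as metabolism is inhibited. Compounds from 100 mM DMSO stocks were serially diluted 1:1 over 10 points in co-factor mix and preincubated 10 min at 37 °C. IC50 was fitted from signal versus concentration.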

In data set [2] the target is B-Raf V600E (Homo sapiens, UniProt P15056, V600E). The data set can be described thus: B-Raf V600E biochemical kinase inhibition (AlphaScreen, biotin-MEK1 substrate). The conditions noted are these: 100 μM ATP. The procedure, abridged:
(§2)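 Raf kinases phosphorylating biotin-MEK1, reaction started with ATP at 100 μM final. Compounds tested at 8 points by serial dilution from a 0.1 mM DMSO stock.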
Background: Bead proximity is the source of the signal in Alpha formats.

Data set [3] in a line: Relative solubility by turbidity in aqueous buffers of varying pH. The data set is classed as physicochemical. To be noted: for turbidity threshold (L, M, H) 7.4: HEPES pH 7.4; for turbidity threshold (L, M, H) 4.5: SIF pH 4.5; for turbidity threshold (L, M, H) 6.8: SIF pH 6.8; for turbidity threshold (L, M, H) 1.4: buffer pH 1.4 (SGF). The procedure, abridged:
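Turbidity endpoint: concentration where optical density at 490, 535 and 650 nm exceeds 0.01, three-wavelength average used. Buffers at pH 1.5, 4.5, 6.8 and 7.4; DMSO serial dilutions of 25 mM stock spiked 1 μL into 99 μL buffer. Low <31.3, moderate 31.3–250, high >250 μM.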

Data set [4] deals with CYP2C9 (Homo sapiens, UniProt P11712). The data set can be described thus: CYP2C9 inhibition (fluorescent substrate). To be noted: CYP2C9, MFC substrate; read-out: Cyp IC50 2C9. Type of data set: in vitro ADME. In short, it runs like this:
as §1

Data set [5] deals with c-Raf-1 (Homo sapiens, UniProt P04049). The data set can be described thus: c-Raf-1 biochemical kinase inhibition (AlphaScreen, biotin-MEK1 substrate). The conditions noted are these: 100 μM ATP. The procedure, abridged: as §2
c-Raf-1, sequence (P04049 whole entry): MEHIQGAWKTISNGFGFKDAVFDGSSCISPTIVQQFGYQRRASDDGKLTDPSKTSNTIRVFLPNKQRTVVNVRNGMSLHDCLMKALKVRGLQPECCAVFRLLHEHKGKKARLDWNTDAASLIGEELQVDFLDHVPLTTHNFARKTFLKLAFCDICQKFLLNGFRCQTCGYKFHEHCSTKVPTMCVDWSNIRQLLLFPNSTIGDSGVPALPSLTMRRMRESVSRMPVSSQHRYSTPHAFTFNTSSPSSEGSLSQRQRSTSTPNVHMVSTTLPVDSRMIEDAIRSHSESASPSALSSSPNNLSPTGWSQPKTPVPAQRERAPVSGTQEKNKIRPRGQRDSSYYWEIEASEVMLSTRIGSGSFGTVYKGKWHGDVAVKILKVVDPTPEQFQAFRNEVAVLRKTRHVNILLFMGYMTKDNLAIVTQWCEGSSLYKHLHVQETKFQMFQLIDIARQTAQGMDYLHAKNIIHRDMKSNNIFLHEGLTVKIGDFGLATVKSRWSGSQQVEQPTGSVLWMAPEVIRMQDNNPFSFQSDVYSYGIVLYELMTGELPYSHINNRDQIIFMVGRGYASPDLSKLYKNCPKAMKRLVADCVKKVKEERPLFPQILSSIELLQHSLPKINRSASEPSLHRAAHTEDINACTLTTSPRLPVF

CYP2C9, sequence (P11712 whole entry): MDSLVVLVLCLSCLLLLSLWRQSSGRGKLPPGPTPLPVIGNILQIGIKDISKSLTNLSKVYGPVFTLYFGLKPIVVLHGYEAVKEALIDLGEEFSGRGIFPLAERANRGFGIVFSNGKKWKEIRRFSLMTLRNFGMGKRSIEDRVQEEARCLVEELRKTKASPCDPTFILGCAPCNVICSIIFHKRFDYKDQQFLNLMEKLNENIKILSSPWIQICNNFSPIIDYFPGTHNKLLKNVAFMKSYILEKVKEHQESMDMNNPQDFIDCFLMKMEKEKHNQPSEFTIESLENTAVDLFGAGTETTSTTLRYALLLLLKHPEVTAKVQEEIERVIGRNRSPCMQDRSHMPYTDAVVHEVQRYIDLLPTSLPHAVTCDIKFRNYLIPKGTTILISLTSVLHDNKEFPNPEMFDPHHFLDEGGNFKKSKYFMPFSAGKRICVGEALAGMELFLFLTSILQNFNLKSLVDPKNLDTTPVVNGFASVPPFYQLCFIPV
CYP2C19, sequence (P33261 whole entry): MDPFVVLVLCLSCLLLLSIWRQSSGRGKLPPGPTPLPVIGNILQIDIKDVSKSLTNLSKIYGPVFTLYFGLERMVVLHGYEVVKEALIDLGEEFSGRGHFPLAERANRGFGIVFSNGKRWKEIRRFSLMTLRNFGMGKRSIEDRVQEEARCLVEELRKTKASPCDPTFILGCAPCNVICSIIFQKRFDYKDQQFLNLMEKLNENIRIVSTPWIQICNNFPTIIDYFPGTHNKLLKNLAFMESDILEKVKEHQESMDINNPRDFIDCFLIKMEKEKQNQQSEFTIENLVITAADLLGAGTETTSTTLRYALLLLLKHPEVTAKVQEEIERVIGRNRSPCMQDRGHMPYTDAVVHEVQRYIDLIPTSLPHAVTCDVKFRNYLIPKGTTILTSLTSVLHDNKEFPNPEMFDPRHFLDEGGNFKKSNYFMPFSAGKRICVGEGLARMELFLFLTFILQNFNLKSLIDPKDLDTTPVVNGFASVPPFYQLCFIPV
B-Raf V600E, sequence (P15056 whole entry V600E): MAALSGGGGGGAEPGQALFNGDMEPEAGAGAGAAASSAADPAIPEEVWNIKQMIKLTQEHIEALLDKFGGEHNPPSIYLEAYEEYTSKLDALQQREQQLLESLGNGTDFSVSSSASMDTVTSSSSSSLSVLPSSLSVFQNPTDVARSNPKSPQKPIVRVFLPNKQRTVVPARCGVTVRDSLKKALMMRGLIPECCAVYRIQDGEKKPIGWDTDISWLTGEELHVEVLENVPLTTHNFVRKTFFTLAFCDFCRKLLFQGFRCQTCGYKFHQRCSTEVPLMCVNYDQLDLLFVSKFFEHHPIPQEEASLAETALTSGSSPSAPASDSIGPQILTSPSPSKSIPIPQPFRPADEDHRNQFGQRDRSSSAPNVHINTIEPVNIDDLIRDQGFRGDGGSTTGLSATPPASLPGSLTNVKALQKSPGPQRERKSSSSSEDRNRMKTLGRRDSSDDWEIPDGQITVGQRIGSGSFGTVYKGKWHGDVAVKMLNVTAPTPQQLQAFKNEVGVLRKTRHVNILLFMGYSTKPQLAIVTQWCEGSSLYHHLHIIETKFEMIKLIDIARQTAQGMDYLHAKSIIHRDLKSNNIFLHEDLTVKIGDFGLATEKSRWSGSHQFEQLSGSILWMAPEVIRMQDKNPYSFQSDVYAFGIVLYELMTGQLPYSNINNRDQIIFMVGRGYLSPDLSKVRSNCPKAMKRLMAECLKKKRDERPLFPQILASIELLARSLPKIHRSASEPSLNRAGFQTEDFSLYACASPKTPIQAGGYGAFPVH

As a reminder, the IC50 is the concentration that inhibits the measured activity by half. For the molecule `CCCS(=O)(=O)Nc1ccc(F)c(C(=O)c2c[nH]c3ncc(-c4ccc(C(=O)NCC)nc4)cc23)c1F` [P-2151, 5-{3-[2,6-Difluoro-3-(propane-1-sulfonylamino)-benzoyl]-1H-pyrrolo[2,3-b]pyridin-5-yl}-pyridine-2-carboxylic acid ethylamide], the IC50 in data set [1] was more than 10 µM. This molecule yielded an IC50 in data set [2] of less than 0.01 µM. In addition, in data set [3], the “turbidity threshold (L, M, H) 7.4” value was “L (low solubility if the threshold concentration is <31.3 04)”; the “turbidity threshold (L, M, H) 4.5” value is “L (low solubility if the threshold concentration is <31.3 04)”; the “turbidity threshold (L, M, H) 6.8” value is “L (low solubility if the threshold concentration is <31.3 04)”; the “turbidity threshold (L, M, H) 1.4” value was “L (low solubility if the threshold concentration is <31.3 04)”. The IC50 in data set [4] lay in the range of 5 to 10 µM. This molecule displayed an IC50 in data set [5] of less than 0.01 µM.

For the molecule `CCCS(=O)(=O)Nc1ccc(F)c(C(=O)c2c[nH]c3ncc(-c4ccc(F)nc4)cc23)c1F` [P-2155, Propane-1-sulfonic acid {2,4-difluoro-3-[5-(6-fluoro-pyridin-3-yl)-1H-pyrrolo[2,3-b]pyridine-3-carbonyl]-phenyl}-amide], the IC50 in data set [1] lay within 5 to 10 µM. Also, the IC50 in data set [2] was less than 0.01 µM. Besides, in data set [3], the “turbidity threshold (L, M, H) 7.4” value is recorded as “L (low solubility if the threshold concentration is <31.3 04)”; the “turbidity threshold (L, M, H) 4.5” value is “L (low solubility if the threshold concentration is <31.3 04)”; the “turbidity threshold (L, M, H) 6.8” value was “L (low solubility if the threshold concentration is <31.3 04)”; the “turbidity threshold (L, M, H) 1.4” value is given as “L (low solubility if the threshold concentration is <31.3 04)”. Also, the IC50 in data set [4] was more than 10 µM. For the same molecule, in data set [5], the IC50 is less than 0.01 µM.

For `CCCS(=O)(=O)Nc1ccc(F)c(C(=O)c2c[nH]c3ncc(-c4ccc(S(=O)(=O)N5CCOCC5)cc4)cc23)c1F` [P-2166, Propane-1-sulfonic acid (2,4-difluoro-3-{5-[4-(morpholine-4-sulfonyl)-phenyl]-1H-pyrrolo[2,3-b]pyridine-3-carbonyl}-phenyl)-amide], the IC50 in data set [1] is more than 10 µM. The IC50 in data set [2] was less than 0.01 µM. In data set [3], the “turbidity threshold (L, M, H) 7.4” value is given as “L (low solubility if the threshold concentration is <31.3 04)”; the “turbidity threshold (L, M, H) 4.5” value is “L (low solubility if the threshold concentration is <31.3 04)”; the “turbidity threshold (L, M, H) 6.8” value was “L (low solubility if the threshold concentration is <31.3 04)”; the “turbidity threshold (L, M, H) 1.4” value is on record as “L (low solubility if the threshold concentration is <31.3 04)”. The IC50 in data set [4] was more than 10 µM. The molecule also yielded an IC50 in data set [5] of less than 0.01 µM.

`CCCS(=O)(=O)Nc1ccc(F)c(C(=O)c2c[nH]c3ncc(-c4ccc(S(=O)(=O)NC5CC5)cc4)cc23)c1F` [P-2168, N-Cyclopropyl-4-{3-[2,6-difluoro-3-(propane-1-sulfonylamino)-benzoyl]-1H-pyrrolo[2,3-b]pyridin-5-yl}-benzenesulfonamide]: in data set [1], the IC50 was 5 to 10 µM. The concentration for half-maximal inhibition (IC50) in data set [2] is less than 0.01 µM. Besides, in data set [3], the “turbidity threshold (L, M, H) 7.4” value is reported as “L (low solubility if the threshold concentration is <31.3 04)”; the “turbidity threshold (L, M, H) 4.5” value is recorded as “L (low solubility if the threshold concentration is <31.3 04)”; the “turbidity threshold (L, M, H) 6.8” value was “L (low solubility if the threshold concentration is <31.3 04)”; the “turbidity threshold (L, M, H) 1.4” value is recorded as “L (low solubility if the threshold concentration is <31.3 04)”. Also, in data set [4], the IC50 is less than 5 µM. In addition, in data set [5], the IC50 was less than 0.01 µM.

On to `CCCS(=O)(=O)Nc1ccc(F)c(C(=O)c2c[nH]c3ncc(-c4cn[nH]c4)cc23)c1F` [P-2174, Propane-1-sulfonic acid {2,4-difluoro-3-[5-(1H-pyrazol-4-yl)-1H-pyrrolo[2,3-b]pyridine-3-carbonyl]-phenyl}-amide], for which, in data set [1], the IC50 was in the range of 5 to 10 µM. Also, in data set [2], the IC50 was less than 0.01 µM. Besides, in data set [3], the “turbidity threshold (L, M, H) 7.4” value is on record as “L (low solubility if the threshold concentration is <31.3 04)”; the “turbidity threshold (L, M, H) 4.5” value is “L (low solubility if the threshold concentration is <31.3 04)”; the “turbidity threshold (L, M, H) 6.8” value is listed as “L (low solubility if the threshold concentration is <31.3 04)”; the “turbidity threshold (L, M, H) 1.4” value is reported as “L (low solubility if the threshold concentration is <31.3 04)”. Also, in data set [4], the half-maximal inhibitory concentration (IC50) is less than 5 µM. For the same molecule, the IC50 in data set [5] was less than 0.01 µM.

Regarding `CCCS(=O)(=O)Nc1ccc(F)c(C(=O)c2c[nH]c3ncc(-c4ccc(S(=O)(=O)N(C)C)cc4)cc23)c1F` [P-2185, 4-{3-[2,6-Difluoro-3-(propane-1-sulfonylamino)-benzoyl]-1H-pyrrolo[2,3-b]pyridin-5-yl}-N,N-dimethyl-benzenesulfonamide], the IC50 in data set [1] was more than 10 µM. The IC50 in data set [2] was less than 0.01 µM. In data set [3], the “turbidity threshold (L, M, H) 7.4” value is listed as “L (low solubility if the threshold concentration is <31.3 04)”; the “turbidity threshold (L, M, H) 4.5” value is “L (low solubility if the threshold concentration is <31.3 04)”; the “turbidity threshold (L, M, H) 6.8” value is given as “L (low solubility if the threshold concentration is <31.3 04)”; the “turbidity threshold (L, M, H) 1.4” value is “L (low solubility if the threshold concentration is <31.3 04)”. Also, the IC50 in data set [4] was less than 5 µM. Also, the IC50 in data set [5] is less than 0.01 µM.

As for `CCCS(=O)(=O)Nc1ccc(F)c(C(=O)c2c[nH]c3ncc(-c4cnc(SC)nc4)cc23)c1F` [P-2189, Propane-1-sulfonic acid {2,4-difluoro-3-[5-(2-methylsulfanyl-pyrimidin-5-yl)-1H-pyrrolo[2,3-b]pyridine-3-carbonyl]-phenyl}-amide], the IC50 in data set [1] lay within 5 to 10 µM. In data set [2], this molecule returned an IC50 of less than 0.01 µM. In data set [3], the “turbidity threshold (L, M, H) 7.4” value is “L (low solubility if the threshold concentration is <31.3 04)”; the “turbidity threshold (L, M, H) 4.5” value is listed as “L (low solubility if the threshold concentration is <31.3 04)”; the “turbidity threshold (L, M, H) 6.8” value was “L (low solubility if the threshold concentration is <31.3 04)”; the “turbidity threshold (L, M, H) 1.4” value is “L (low solubility if the threshold concentration is <31.3 04)”. The IC50 in data set [4] was less than 5 µM. The molecule further gave an IC50 in data set [5] of less than 0.01 µM.

For `CCCS(=O)(=O)Nc1ccc(F)c(C(=O)c2c[nH]c3ncc(-c4ccc(NC(C)=O)nc4)cc23)c1F` [P-2193, N-(5-{3-[2,6-Difluoro-3-(propane-1-sulfonylamino)-benzoyl]-1H-pyrrolo[2,3-b]pyridin-5-yl}-pyridin-2-yl)-acetamide], the IC50 in data set [1] lay within 5 to 10 µM. The molecule further showed an IC50 in data set [2] of less than 0.01 µM. Also, in data set [3], the “turbidity threshold (L, M, H) 7.4” value is recorded as “L (low solubility if the threshold concentration is <31.3 04)”; the “turbidity threshold (L, M, H) 4.5” value is recorded as “L (low solubility if the threshold concentration is <31.3 04)”; the “turbidity threshold (L, M, H) 6.8” value is recorded as “L (low solubility if the threshold concentration is <31.3 04)”; the “turbidity threshold (L, M, H) 1.4” value is reported as “M (moderate solubility if the threshold concentration is 31.3 μM to 250 μM)”. For the same molecule, the IC50 in data set [4] is more than 10 µM. The molecule also registered an IC50 in data set [5] of less than 0.01 µM.

`CCCS(=O)(=O)Nc1ccc(F)c(C(=O)c2c[nH]c3ncc(-c4ccc(S(N)(=O)=O)cc4)cc23)c1F` [P-2194, 4-{3-[2,6-Difluoro-3-(propane-1-sulfonylamino)-benzoyl]-1H-pyrrolo[2,3-b]pyridin-5-yl}-benzenesulfonamide]: in data set [1], the IC50 was more than 10 µM. This molecule showed a half-inhibitory concentration (IC50) in data set [2] of less than 0.01 µM. In addition, in data set [3], the “turbidity threshold (L, M, H) 7.4” value is reported as “L (low solubility if the threshold concentration is <31.3 04)”; the “turbidity threshold (L, M, H) 4.5” value is on record as “L (low solubility if the threshold concentration is <31.3 04)”; the “turbidity threshold (L, M, H) 6.8” value was “L (low solubility if the threshold concentration is <31.3 04)”; the “turbidity threshold (L, M, H) 1.4” value was “L (low solubility if the threshold concentration is <31.3 04)”. In data set [4], the concentration for half-maximal inhibition (IC50) is more than 10 µM. Besides, the IC50 in data set [5] was less than 0.01 µM.

Take `CCCS(=O)(=O)Nc1ccc(F)c(C(=O)c2c[nH]c3ncc(-c4ccc(C)nc4)cc23)c1F` [P-2213, Propane-1-sulfonic acid {2,4-difluoro-3-[5-(6-methyl-pyridin-3-yl)-1H-pyrrolo[2,3-b]pyridine-3-carbonyl]-phenyl}-amide]: the IC50 in data set [1] is more than 10 µM. The IC50 in data set [2] is less than 0.01 µM. In addition, in data set [3], the “turbidity threshold (L, M, H) 7.4” value is recorded as “L (low solubility if the threshold concentration is <31.3 04)”; the “turbidity threshold (L, M, H) 4.5” value is on record as “M (moderate solubility if the threshold concentration is 31.3 μM to 250 μM)”; the “turbidity threshold (L, M, H) 6.8” value is listed as “L (low solubility if the threshold concentration is <31.3 04)”; the “turbidity threshold (L, M, H) 1.4” value is listed as “H (high solubility if the threshold concentration is >250 μM)”. The IC50 in data set [4] is less than 5 µM. Also, the IC50 in data set [5] was less than 0.01 µM.
